Laboratory results reported in PubChem BioAssay (NCI).
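96-well plates; 48 h exposure; 5 concentrations. Endpoints by linear interpolation between flanking doses. Not reached: highest tested concentration assigned. TGI: total growth inhibition.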

How the values were obtained:
Assay in all cases: growth of human tumour cells (NCI), 48 h
MDA-N = system: MDA-N
NCI-H23 lung = system: NCI-H23 lung
KM12 colon = system: KM12 colon
A549 NSCLC = system: A549 NSCLC
UACC-257 melanoma = system: UACC-257 melanoma
PC-3 prostate = system: PC-3 prostate
MALME-3M melanoma = system: MALME-3M melanoma
SK-OV-3 ovarian = system: SK-OV-3 ovarian
HT29 colon = system: HT29 colon
DU-145 prostate = system: DU-145 prostate
SK-MEL-2 melanoma = system: SK-MEL-2 melanoma
M14 melanoma = system: M14 melanoma
EKVX NSCLC = system: EKVX NSCLC
TK-10 renal = system: TK-10 renal
SR leukemia = system: SR leukemia

Compound: CCOC(=O)[C@@H]1[C@@H](c2ccccc2)N(C)O[C@@]1(c1ccccc1)C(F)(F)F
- TGI (MDA-N): > 100 µM
- TGI (NCI-H23 lung): > 100 µM
- TGI (KM12 colon): > 100 µM
- TGI (A549 NSCLC): > 100 µM
- TGI (UACC-257 melanoma): > 100 µM
- TGI (PC-3 prostate): > 100 µM
- TGI (MALME-3M melanoma): > 100 µM
- TGI (SK-OV-3 ovarian): > 100 µM
- TGI (HT29 colon): > 100 µM
- TGI (DU-145 prostate): > 100 µM
- TGI (SK-MEL-2 melanoma): > 100 µM
- TGI (M14 melanoma): > 100 µM
- TGI (EKVX NSCLC): > 100 µM
- TGI (TK-10 renal): > 100 µM

Compound: COC(=O)C1(C(=O)OC)N=C(C)OC1c1ccccc1O (stereo not drawn)
- TGI (NCI-H23 lung): > 100 µM
- TGI (KM12 colon): > 100 µM
- TGI (A549 NSCLC): > 100 µM
- TGI (UACC-257 melanoma): > 100 µM
- TGI (PC-3 prostate): > 100 µM
- TGI (SK-OV-3 ovarian): > 100 µM
- TGI (SR leukemia): > 100 µM
- TGI (DU-145 prostate): > 100 µM
- TGI (SK-MEL-2 melanoma): > 100 µM
- TGI (M14 melanoma): > 100 µM
- TGI (EKVX NSCLC): > 100 µM
- TGI (TK-10 renal): > 100 µM

Compound: CC(O)CNC(=O)Nc1c(C(F)(F)F)cc(-c2ccccc2)[nH]c1=O (stereo not drawn)
- TGI (NCI-H23 lung): > 100 µM
- TGI (KM12 colon): > 100 µM
- TGI (A549 NSCLC): > 100 µM
- TGI (UACC-257 melanoma): > 100 µM
- TGI (PC-3 prostate): > 100 µM
- TGI (MALME-3M melanoma): > 100 µM
- TGI (SK-OV-3 ovarian): > 100 µM
- TGI (HT29 colon): > 100 µM
- TGI (DU-145 prostate): > 100 µM
- TGI (SK-MEL-2 melanoma): > 100 µM
- TGI (M14 melanoma): > 100 µM
- TGI (EKVX NSCLC): > 100 µM
- TGI (TK-10 renal): > 100 µM

Compound: C=C(COCO)C(C)=O
- TGI (MDA-N): 33.5 µM
- TGI (NCI-H23 lung): 35.4 µM
- TGI (KM12 colon): > 54.5 µM
- TGI (A549 NSCLC): > 64.7 µM
- TGI (UACC-257 melanoma): 31.1 µM
- TGI (PC-3 prostate): 34.8 µM
- TGI (MALME-3M melanoma): 23.5 µM
- TGI (SK-OV-3 ovarian): > 100 µM
- TGI (HT29 colon): 35 µM
- TGI (DU-145 prostate): > 65.8 µM
- TGI (SK-MEL-2 melanoma): 40.5 µM
- TGI (M14 melanoma): 26.8 µM
- TGI (EKVX NSCLC): 46.9 µM
- TGI (TK-10 renal): 26.9 µM
